Experimental data reported in paper PMC12440824, “Chimeric deubiquitinase engineering reveals structural basis for specific inhibition of the mitophagy regulator USP30” (Nature Structural & Molecular Biology, 2025).

What was measured:
[1] = test system: HeLa cells expressing YFP–parkin; ubiquitination of USP30 substrates (TOM20, TOM40, MFN2); test: Mitochondrial ubiquitination analysis (OtUBD enrichment, western blot); type: cell-based, human; details: 2 µM compound 19 h, then 10 µM CCCP 1 h
Protocol: Using a Trans-Blot Turbo system (Bio-Rad, 1.0 A, 25 V, 30 min), proteins were blotted onto a nitrocellulose membrane. Membranes were saturated by incubating in 5% (wt/vol) non-fat milk in PBS-T. Primary antibodies (anti-Flag, 1:1,000, Sigma, F3165; anti-USP30, 1:500, Sigma, HPA016952; anti-vinculin, 1:10,000, Sigma, V9131; anti-GAPDH, 1:10,000, Thermo Fisher, AM4300; anti-TOM40, 1:2,000, Proteintech, 18409-1-AP; anti-TOM20, 1:5,000, Proteintech, 11802-1-AP; anti-MFN2, 1:5,000, Proteintech, 12186-1-AP) were allowed to bind overnight. Appropriate horseradish peroxidase-coupled secondary antibodies (anti-mouse, 1:5,000, Sigma, NXA931; anti-rabbit, 1:5,000, Sigma, GENA934) were applied, and chemiluminescence was generated using Clarity Western ECL Substrate (Bio-Rad). For detection of endogenous USP30 levels, the Clarity Western ECL Substrate was supplemented with 10% Clarity Max Western ECL Substrate (Bio-Rad). Images were recorded on a ChemiDoc MP Imaging System (Bio-Rad).
HeLa cells constitutively expressing YFP–parkin were treated with 2 µM of the respective compounds or an equivalent volume of DMSO on the day after seeding. Nineteen hours after compound treatment, 10 µM carbonyl cyanide m-chlorophenyl hydrazone (CCCP, Acros Organics) or DMSO of the equivalent volume was added for 1 h before cells were washed with ice-cold PBS. Cells were then lysed in urea lysis buffer (4 M urea, 50 mM Tris-HCl, pH 8, 150 mM NaCl, 1% (vol/vol) IGEPAL, 2 mM EDTA, 5% (vol/vol) glycerol, 1× EDTA-free protease inhibitor cocktail, 1 mM PMSF, 10 µM PR619, 20 mM N-ethylmaleimide, 4 mM 1,10-phenanthroline) and collected by scraping. Cells were homogenized by sonication for 10 s (2 s on and 2 s off) at 10% amplitude and centrifuged for 10 min at 14,000g and 4 °C.
Biotinylated OtUBD (2 nmol, prepared as described elsewhere[53]) was immobilized on 35 µl of a high-capacity NeutrAvidin agarose bead slurry (Pierce, Thermo Fisher Scientific) per condition for 1 h at 4 °C with rotation. Excess reagent was washed away with ice-cold PBS. The beads were then equilibrated in urea lysis buffer. For each condition, an equal amount of 3 mg protein (as determined by the Bradford assay, in 1 ml of lysis buffer, typically obtained from one 10-cm dish) was added to the beads. These were then incubated for 2 h at 4 °C with rotation and pelleted by centrifugation at 500g for 1 min, and the supernatant was removed. Beads were then washed once with lysis buffer, once with high-salt buffer (50 mM Tris-HCl, pH 8, 1 M NaCl) and twice with PBS. Elution was carried out using 2× LDS sample buffer with 25 mM DTT and boiling for 5 min at 95 °C. After pelleting the beads at 500g for 1 min, the supernatant was transferred and analyzed by SDS–PAGE and western blotting as described above.

[2] = test system: USP30 c2; test: Thermal shift assay, USP30 c2; type: binding, human; details: 20 μM inhibitor; for ΔTm, USP30 c2: replicates or average
Protocol: (§1) The thermal stability of USP30 constructs and effects of either inhibitor or Ub-PA binding were determined by thermal shift assays. Inhibitor, Ub-PA and SYPRO orange dye (Sigma, 5,000× stock in DMSO) solutions were prepared in 1× PBS, 4 mM DTT. Inhibitor/Ub-PA was prediluted to 100 µM, and SYPRO orange dye was prediluted to 50× (from the commercial stock). Mixtures of protein, inhibitor/Ub-PA and SYPRO were prepared with inhibitor/Ub-PA at a final concentration of 20 μM, SYPRO at a final concentration of 4× and protein at a final concentration of 2 μM for c1, 4 μM for ch1, ch4 and c2 and 3 μM for ch2 and ch3. Samples were added in triplicate to a white 96-well PCR plate (Bio-Rad). Fluorescence intensity was monitored (excitation, 450–490 nm; emission, 560–580 nm) at a gradient of 20–90 °C (increment of 0.3 °C, hold for 5 s before read) on a real-time PCR system (Bio-Rad).

[3] = biological target: USP30^ch3 F157A (Homo sapiens, UniProt Q70CQ3, F157A, form not given); test: Thermal shift assay, USP30 ch3 F157A; type: binding; details: 20 μM inhibitor
Protocol: as §1

[4] = biological target: USP30^ch3 A162S (Homo sapiens, UniProt Q70CQ3, A162S, form not given); test: Thermal shift assay, USP30 ch3 A162S; type: binding; details: 20 μM inhibitor
Protocol: as §1

[5] = biological target: USP30^ch1 (Homo sapiens, UniProt Q70CQ3); test: Ub–RhoG cleavage enzyme inhibition assay, chimera 1; type: biochemical; design: scale not given here; details: mean n=3
Protocol: (§2) Enzyme kinetics were performed in black, low-volume, non-binding-surface 384-well plates. […] Next, 10 µl of 2× enzyme solution was added in triplicate to the plate. The reaction was started by adding 10 µl of 2× substrate solution. […] Inhibitor solution (4×) was added to 4× enzyme solution to create a 2× enzyme–inhibitor mixture. Next, 10 µl of this 2× enzyme–inhibitor mixture was then added to the plate in triplicate, and the plate was incubated at room temperature for 90 min. The reaction was started by adding 10 µl of 2× Ub–RhoG substrate. […] Data were analyzed with GraphPad Prism.

[6] = biological target: T1, USP30^ch3 (Homo sapiens, UniProt Q70CQ3); test: Thermal shift assay, USP30 ch3; type: binding; details: 20 μM inhibitor
Protocol: as §1

[7] = biological target: T1, USP30^ch3; test: Ub–RhoG cleavage enzyme inhibition assay, chimera 3 (WT); type: biochemical; details: mean n=3
Protocol: as §2

T1 sequence (Q70CQ3 64-502): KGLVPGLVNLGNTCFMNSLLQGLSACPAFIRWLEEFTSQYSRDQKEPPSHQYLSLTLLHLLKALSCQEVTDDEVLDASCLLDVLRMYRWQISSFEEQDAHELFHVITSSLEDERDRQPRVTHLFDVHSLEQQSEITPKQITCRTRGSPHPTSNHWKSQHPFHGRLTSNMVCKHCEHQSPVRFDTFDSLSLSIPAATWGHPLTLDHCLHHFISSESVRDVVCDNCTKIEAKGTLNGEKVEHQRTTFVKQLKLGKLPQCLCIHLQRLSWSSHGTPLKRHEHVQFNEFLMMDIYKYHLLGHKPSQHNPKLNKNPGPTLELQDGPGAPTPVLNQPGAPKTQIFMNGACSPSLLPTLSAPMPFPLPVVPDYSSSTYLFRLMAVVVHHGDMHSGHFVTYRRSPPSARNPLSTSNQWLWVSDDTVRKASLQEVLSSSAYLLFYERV
T1 sequence (P54578 248-318 partner): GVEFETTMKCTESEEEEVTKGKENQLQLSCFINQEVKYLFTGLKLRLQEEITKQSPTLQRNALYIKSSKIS
T1 sequence (Q9P2H5 821-846 partner): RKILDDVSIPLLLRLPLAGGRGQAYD
Chain of USP30^ch1 (Q70CQ3 64-502): as the sequence (Q70CQ3 64-502) above
Chain of USP30^ch1 (Q93009 325-395 partner): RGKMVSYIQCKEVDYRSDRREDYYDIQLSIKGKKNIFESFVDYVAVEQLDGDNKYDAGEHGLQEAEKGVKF
Chain of USP30^ch3 A162S (Q70CQ3 64-502 A162S, form open): as the sequence (Q70CQ3 64-502) above, with A99S counted along it
Chain of USP30^ch3 A162S (P54578 248-318 partner, form open): as the sequence (P54578 248-318 partner) above
Chain of USP30^ch3 F157A (Q70CQ3 64-502 F157A, form open): as the sequence (Q70CQ3 64-502) above, with F94A counted along it
Chain of USP30^ch3 F157A (P54578 248-318 partner, form open): as the sequence (P54578 248-318 partner) above

## CC(C)(CO)NS(=O)(=O)c1ccc(NC(=O)[C@H](Cc2ccccc2)NC(=O)c2ccc(F)cc2)cc1 [NK036]
[1]
  polyubiquitination of TOM20 and TOM40: elevated
  polyubiquitination of mitofusin 2 (MFN2): not affecting
[2]
  Tm in presence of compound, USP30 c2: 58.2 °C
  ΔTm, USP30 c2: 7.5 °C
[3]
  Tm in presence of compound, USP30^ch3 F157A: 58.5 °C
[4]
  Tm in presence of compound, USP30^ch3 A162S: 59.7 °C

## CC(C)(C)NS(=O)(=O)c1ccc(NC(=O)[C@H](Cc2ccccc2)NC(=O)c2ccc(F)cc2)cc1 [compound 39]
[5]; inhibitor 0.0015625 nM
  USP30ch1 activity: 0.9737
[5]; inhibitor 0.00625 nM
  USP30ch1 activity: 0.9837
[5]; inhibitor 0.025 nM
  USP30ch1 activity: 0.8913
[5]; inhibitor 0.1 nM
  USP30ch1 activity: 0.7529
[5]; inhibitor 0.39 nM
  USP30ch1 activity: 0.5726
[5]; inhibitor 1.56 nM
  USP30ch1 activity: 0.3796
[5]; inhibitor 6.25 nM
  USP30ch1 activity: 0.2212
[5]; inhibitor 25 nM
  USP30ch1 activity: 0.1115
[5]; inhibitor 100 nM
  USP30ch1 activity: 0.04824
[5]; inhibitor 400 nM
  USP30ch1 activity: 0.02114
[5]; inhibitor 1600 nM
  USP30ch1 activity: 0.0058
[1]
  polyubiquitination of TOM20 and TOM40: elevated
  polyubiquitination of mitofusin 2 (MFN2): not affecting
[2]
  Tm in presence of compound, USP30 c2: 58.5 °C
  ΔTm, USP30 c2: 7.8 °C
[3]
  Tm in presence of compound, USP30^ch3 F157A: 58.8 °C
[6]
  Tm in presence of compound, USP30^ch3: 61.5 °C
[4]
  Tm in presence of compound, USP30^ch3 A162S: 60.0 °C
[7]; inhibitor 0.001563 nM
  USP30ch3 WT activity (Fig. 5d / ED Fig. 7e series): 0.9251
[7]; inhibitor 0.00625 nM
  USP30ch3 WT activity (Fig. 5d / ED Fig. 7e series): 0.867
  USP30ch3 activity: 0.8546
[7]; inhibitor 0.025 nM
  USP30ch3 WT activity (Fig. 5d / ED Fig. 7e series): 0.8429
  USP30ch3 activity: 0.7063
[7]; inhibitor 0.1 nM
  USP30ch3 WT activity (Fig. 5d / ED Fig. 7e series): 0.705
  USP30ch3 activity: 0.6531
[7]; inhibitor 0.39 nM
  USP30ch3 WT activity (Fig. 5d / ED Fig. 7e series): 0.5733
  USP30ch3 activity: 0.4658
[7]; inhibitor 1.56 nM
  USP30ch3 WT activity (Fig. 5d / ED Fig. 7e series): 0.4495
  USP30ch3 activity: 0.3269
[7]; inhibitor 6.25 nM
  USP30ch3 WT activity (Fig. 5d / ED Fig. 7e series): 0.2804
  USP30ch3 activity: 0.1958
[7]; inhibitor 25 nM
  USP30ch3 WT activity (Fig. 5d / ED Fig. 7e series): 0.1378
  USP30ch3 activity: 0.09897
[7]; inhibitor 100 nM
  USP30ch3 WT activity (Fig. 5d / ED Fig. 7e series): 0.05989
  USP30ch3 activity: 0.03567
[7]; inhibitor 400 nM
  USP30ch3 WT activity (Fig. 5d / ED Fig. 7e series): 0.03092
  USP30ch3 activity: 0.008529
[7]; inhibitor 1600 nM
  USP30ch3 WT activity (Fig. 5d / ED Fig. 7e series): 0.02661
  USP30ch3 activity: -0.001344
[7]; inhibitor 0.0015625 (0.001563) nM
  USP30ch3 activity: 0.9081
